From the NIST ThermoML archive (doi:10.1021/je400055v)

Experiment: xn = mol fraction of the nth substance listed
Conditions: Liquid, Vibrating tube method

CCCCCCCCCCC [undecane] + CCCCCCC
Conditions	mass density [kg/m3]
313.15 K, 23000 kPa, x2 = 0.05	740.6
313.15 K, 23000 kPa, x2 = 0.7482	706.2
313.15 K, 24000 kPa, x2 = 0.05	741.3
313.15 K, 24000 kPa, x2 = 0.7482	707
313.15 K, 25000 kPa, x2 = 0.05	741.9
313.15 K, 25000 kPa, x2 = 0.7482	707.7
313.16 K, 1000 kPa, x2 = 0.2346	716.5
313.16 K, 2001 kPa, x2 = 0.2346	717.4
313.16 K, 3000 kPa, x2 = 0.2346	718.3
313.16 K, 4001 kPa, x2 = 0.2346	719.2
313.16 K, 5000 kPa, x2 = 0.2346	720
313.16 K, 6000 kPa, x2 = 0.2346	720.8
313.16 K, 7000 kPa, x2 = 0.2346	721.7
313.16 K, 8000 kPa, x2 = 0.2346	722.5
313.16 K, 9000 kPa, x2 = 0.2346	723.3
313.16 K, 10000 kPa, x2 = 0.2346	724.1
313.16 K, 11001 kPa, x2 = 0.2346	724.8
313.16 K, 12000 kPa, x2 = 0.2346	725.6
313.16 K, 13000 kPa, x2 = 0.2346	726.4
313.16 K, 14000 kPa, x2 = 0.2346	727.1
313.16 K, 15000 kPa, x2 = 0.2346	727.8
313.16 K, 16000 kPa, x2 = 0.2346	728.6
313.16 K, 17000 kPa, x2 = 0.2346	729.3
313.16 K, 18000 kPa, x2 = 0.2346	730
313.16 K, 19000 kPa, x2 = 0.2346	730.7
313.16 K, 20000 kPa, x2 = 0.2346	731.4
313.16 K, 21000 kPa, x2 = 0.2346	732.1
313.16 K, 22000 kPa, x2 = 0.2346	732.7
313.16 K, 23000 kPa, x2 = 0.2346	733.4
313.16 K, 24000 kPa, x2 = 0.2346	734
313.16 K, 25000 kPa, x2 = 0.2346	734.7
323.09 K, 1001 kPa, x2 = 0.9511	663.1
323.09 K, 2000 kPa, x2 = 0.9511	664.3
323.09 K, 3000 kPa, x2 = 0.9511	665.4
323.09 K, 4000 kPa, x2 = 0.9511	666.6
323.09 K, 5000 kPa, x2 = 0.9511	667.7
323.09 K, 6000 kPa, x2 = 0.9511	668.8
323.09 K, 7000 kPa, x2 = 0.9511	669.9
323.09 K, 8000 kPa, x2 = 0.9511	670.9
323.09 K, 9000 kPa, x2 = 0.9511	672
323.09 K, 10000 kPa, x2 = 0.9511	673
323.09 K, 11000 kPa, x2 = 0.9511	674
323.09 K, 12000 kPa, x2 = 0.9511	675
323.09 K, 13000 kPa, x2 = 0.9511	675.9
323.09 K, 14001 kPa, x2 = 0.9511	676.9
323.09 K, 15001 kPa, x2 = 0.9511	677.8
323.09 K, 16000 kPa, x2 = 0.9511	678.7
323.09 K, 17001 kPa, x2 = 0.9511	679.6
323.09 K, 18001 kPa, x2 = 0.9511	680.5
323.09 K, 19000 kPa, x2 = 0.9511	681.4
323.09 K, 20000 kPa, x2 = 0.9511	682.3
323.09 K, 21001 kPa, x2 = 0.9511	683.1
323.09 K, 22000 kPa, x2 = 0.9511	683.9
323.09 K, 23001 kPa, x2 = 0.9511	684.8
323.09 K, 24000 kPa, x2 = 0.9511	685.6
323.09 K, 25000 kPa, x2 = 0.9511	686.3
323.11 K, 2001 kPa, x2 = 0.5063	695.8
323.11 K, 3000 kPa, x2 = 0.5063	696.8
323.11 K, 4000 kPa, x2 = 0.5063	697.8
323.11 K, 5000 kPa, x2 = 0.5063	698.8
323.11 K, 6000 kPa, x2 = 0.5063	699.7
323.11 K, 7000 kPa, x2 = 0.5063	700.7
323.11 K, 8001 kPa, x2 = 0.5063	701.6
323.11 K, 9000 kPa, x2 = 0.5063	702.5
323.11 K, 10000 kPa, x2 = 0.5063	703.4
323.11 K, 11000 kPa, x2 = 0.5063	704.3
323.11 K, 12000 kPa, x2 = 0.5063	705.1
323.11 K, 13000 kPa, x2 = 0.5063	706
323.11 K, 14000 kPa, x2 = 0.5063	706.8
323.11 K, 15000 kPa, x2 = 0.5063	707.6
323.11 K, 16000 kPa, x2 = 0.5063	708.5
323.11 K, 17001 kPa, x2 = 0.5063	709.3
323.11 K, 18000 kPa, x2 = 0.5063	710.1
323.11 K, 19000 kPa, x2 = 0.5063	710.8
323.11 K, 20000 kPa, x2 = 0.5063	711.6
323.11 K, 21001 kPa, x2 = 0.5063	712.4
323.11 K, 22050 kPa, x2 = 0.5063	713.1
323.11 K, 23000 kPa, x2 = 0.5063	713.9
323.11 K, 24000 kPa, x2 = 0.5063	714.6
323.11 K, 25000 kPa, x2 = 0.5063	715.3
323.12 K, 1000 kPa, x2 = 0.7482	679.1
323.12 K, 1001 kPa, x2 = 0.05	716.7
323.12 K, 2000 kPa, x2 = 0.7482	680.2
323.12 K, 2001 kPa, x2 = 0.05	717.6
323.12 K, 3000 kPa, x2 = 0.05	718.5
323.12 K, 3000 kPa, x2 = 0.7482	681.3
323.12 K, 4000 kPa, x2 = 0.05	719.4
323.12 K, 4000 kPa, x2 = 0.7482	682.3
323.12 K, 5000 kPa, x2 = 0.05	720.3
323.12 K, 5000 kPa, x2 = 0.7482	683.4
323.12 K, 6000 kPa, x2 = 0.05	721.1
323.12 K, 6000 kPa, x2 = 0.7482	684.4
323.12 K, 7000 kPa, x2 = 0.05	722
